Experimental data from publication PMC12629169, “Antiaging, Wound‐Healing Properties and Chemical Characterization of Crude Hydroalcoholic Extract and Fractions of Myrcia neoobscura” (Chemistry & Biodiversity, 2025).
Values after ≈ are worked out from the molar mass of the structure shown.

Molecular target: T1, collagenase
T1 construct: gene colG
Assay: ninhydrin colorimetric gelatin hydrolysis
Format: biochemical
Conditions: gelatin substrate, Tris-HCl pH 7.5, 5 mM CaCl2, 1 µM ZnCl2, 37°C

## O=C(O)c1cc(O)c(O)c(O)c1 [compound 1, gallic acid]
  IC50: 108.88 ± 12.71 mg/L (≈ 640 µM)
